From US4238566A (priority 1980, dated 1980)
pKi: −log10 of the molar value.

Columns and labels:
Type in all cases: biochemical
[1] = molecular target: T1, Bovine milk xanthine oxidase (E.C. 1.2.3.2.), XO concentrate of this invention, E280/E450 ratio 2.0 to 4.1 (Bos taurus, UniProt P80457); assay: Kinetic parameters (Km, Vmax, KI) of XO concentrate of this invention; conditions: for Vmax with hypoxanthine / Vmax with xanthine: XO of this invention
T1 construct: Bovine milk XO was purified using three different methods; from tissue; host or cells: bovine milk (purified in-house by the method of the invention)
Method: (§1) Bovine milk XO was purified using three different methods and the purified XO enzyme concentrate preparation from each method was assayed for its kinetic parameters.
(§2) The first method used was that of Horecker and Heppel (Methods in Enzymology, Vol. 2, pp. 482-485, 1955). […] The second method was that of Waud et al. (Arch. Biochem. and Biophys., Vol. 169, pp. 695-701, 1975). […] The third method was that described above for the preparation of the XO concentrate of this invention.
(§3) The concentration of the substrate was varied over a gradient of initial concentrations of one to nine millimolar. […] Three replicates of each assay were performed at each concentration of substrate. Buffer pH was monitored constantly and the percent oxygen saturation was maintained at approximately 75%. Lineweaver-Burk and Hanes plots were then constructed from the collected data.
(§4) Lineweaver-Burk and Hanes plots were constructed from the data and both Km and Vmax determined therefrom.
(§5) Experimental conditions for this part of the study were similar to the preceding experiments. […] From the collected data, Lineweaver-Burk plots for competitive inhibition were constructed.

[2] = molecular target: T2, Bovine milk xanthine oxidase (E.C. 1.2.3.2.), XO concentrate by prior art 2 (Waud et al. 1975), E280/E450 ratio 4.8 (Bos taurus, UniProt P80457); assay: Kinetic parameters (Km, Vmax, KI) of XO concentrate prepared by prior art method of Waud et al.; conditions: for Vmax with hypoxanthine / Vmax with xanthine: XO by prior art 2
T2 construct: Bovine milk XO was purified using three different methods; from tissue; host or cells: bovine milk (purified in-house by the method of Waud et al. 1975)
Method: as §1, §2, §3, §4, §5

[3] = molecular target: T3, Bovine milk xanthine oxidase (E.C. 1.2.3.2.), XO concentrate by prior art 1 (Horecker and Heppel 1955), E280/E450 ratio 6.1 (Bos taurus, UniProt P80457); assay: Kinetic parameters (Km, Vmax, KI) of XO concentrate prepared by prior art method of Horecker and Heppel; conditions: for Vmax with hypoxanthine / Vmax with xanthine: XO by prior art 1
T3 construct: Bovine milk XO was purified using three different methods; from tissue; host or cells: bovine milk (purified in-house by the method of Horecker and Heppel 1955)
Method: as §1, §2, §3, §4, §5

T2 sequence (P80457 whole entry): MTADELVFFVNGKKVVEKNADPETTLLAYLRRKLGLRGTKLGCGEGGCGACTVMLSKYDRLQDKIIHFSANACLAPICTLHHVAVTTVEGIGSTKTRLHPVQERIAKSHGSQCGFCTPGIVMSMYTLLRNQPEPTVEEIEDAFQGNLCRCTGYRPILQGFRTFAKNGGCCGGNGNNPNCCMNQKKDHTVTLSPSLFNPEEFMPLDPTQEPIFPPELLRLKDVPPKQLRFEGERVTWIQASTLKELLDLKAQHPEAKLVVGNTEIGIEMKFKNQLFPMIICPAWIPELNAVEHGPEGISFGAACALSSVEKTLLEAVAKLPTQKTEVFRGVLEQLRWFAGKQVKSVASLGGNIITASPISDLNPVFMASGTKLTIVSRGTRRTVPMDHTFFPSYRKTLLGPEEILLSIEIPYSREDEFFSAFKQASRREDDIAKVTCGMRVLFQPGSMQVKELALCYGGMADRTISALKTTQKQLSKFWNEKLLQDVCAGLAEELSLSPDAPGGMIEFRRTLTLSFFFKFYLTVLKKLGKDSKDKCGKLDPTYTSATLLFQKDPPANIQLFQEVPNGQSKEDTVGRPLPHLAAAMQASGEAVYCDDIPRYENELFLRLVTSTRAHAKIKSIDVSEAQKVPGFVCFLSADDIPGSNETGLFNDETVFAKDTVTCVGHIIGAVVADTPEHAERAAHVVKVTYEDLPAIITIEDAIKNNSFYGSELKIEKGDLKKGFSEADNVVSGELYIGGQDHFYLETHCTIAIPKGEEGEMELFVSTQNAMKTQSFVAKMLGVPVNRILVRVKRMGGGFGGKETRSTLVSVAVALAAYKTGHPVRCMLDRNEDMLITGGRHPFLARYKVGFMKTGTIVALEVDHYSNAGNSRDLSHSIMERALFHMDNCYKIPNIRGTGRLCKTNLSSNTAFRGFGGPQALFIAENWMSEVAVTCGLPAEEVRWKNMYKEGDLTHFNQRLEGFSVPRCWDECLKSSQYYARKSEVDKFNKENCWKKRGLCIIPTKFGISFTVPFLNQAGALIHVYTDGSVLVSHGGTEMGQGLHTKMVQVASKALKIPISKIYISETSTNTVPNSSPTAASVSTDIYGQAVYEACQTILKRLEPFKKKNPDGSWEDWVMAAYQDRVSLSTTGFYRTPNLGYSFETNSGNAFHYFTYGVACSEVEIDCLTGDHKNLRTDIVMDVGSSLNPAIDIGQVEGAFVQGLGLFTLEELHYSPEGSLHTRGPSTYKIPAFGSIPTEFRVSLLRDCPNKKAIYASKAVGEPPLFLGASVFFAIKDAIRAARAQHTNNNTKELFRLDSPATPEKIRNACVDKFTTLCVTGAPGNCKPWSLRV
T1 sequence (P80457 whole entry): as above
T3 sequence (P80457 whole entry): as above

What does the source list for O=c1[nH]cnc2nc[nH]c12 [hypoxanthine]?
Vmax with hypoxanthine ([1]; pH 8.3): 1.47 I.U.; Vmax with hypoxanthine ([1]; pH 8.7): 0.666 I.U.; Vmax with hypoxanthine ([2]; pH 8.3): 1.31 I.U; Vmax with hypoxanthine ([2]; pH 8.7): 0.463 I.U.; Vmax with hypoxanthine ([3]; pH 8.3): 1.25 I.U.; Vmax with hypoxanthine ([3]; pH 8.7): 0.448 I.U.

What does the source list for O=c1[nH]c(=O)c2[nH]cnc2[nH]1 [xanthine]?
Vmax with xanthine ([1]; pH 8.3): 4.76 I.U.; Vmax with xanthine ([1]; pH 8.7): 3.125 I.U.; Vmax with xanthine ([2]; pH 8.3): 2.8 I.U.; Vmax with xanthine ([2]; pH 8.7): 2.16 I.U.; Vmax with xanthine ([3]; pH 8.3): 2.0 I.U.; Vmax with xanthine ([3]; pH 8.7): 2.03 I.U.

With Nc1nc2ncc(CNc3ccc(C(=O)N[C@@H](CCC(=O)O)C(=O)O)cc3)nc2c(=O)[nH]1 [folic acid] as the compound, how does the pKi ([1]; read-out: KI with folic acid) read?
The pKi was 5.94.

What about the pKi [2] of the same compound?
The pKi was 5.77.

And the pKi [3]?
Its pKi is 5.75.
